These results are taken from patent US20220251569A1, “TREATMENT AND PREVENTION OF DISEASE MEDIATED BY WWP2” (National University of Singapore, priority 2019, published 2022).

The target of one assay is T1, WWP2-N (Homo sapiens, UniProt O00308).
T1 construct: GST; made in house
T1 sequence (O00308 1-335 limits assumed): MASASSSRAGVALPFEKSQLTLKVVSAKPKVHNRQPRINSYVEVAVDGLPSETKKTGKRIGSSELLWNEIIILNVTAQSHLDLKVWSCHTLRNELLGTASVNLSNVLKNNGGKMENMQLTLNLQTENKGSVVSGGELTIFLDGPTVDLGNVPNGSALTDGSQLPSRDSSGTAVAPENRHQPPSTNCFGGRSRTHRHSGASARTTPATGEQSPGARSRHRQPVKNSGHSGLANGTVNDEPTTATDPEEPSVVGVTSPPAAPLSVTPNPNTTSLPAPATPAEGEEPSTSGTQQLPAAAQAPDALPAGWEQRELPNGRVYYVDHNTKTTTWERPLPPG
Kind of assay: Octet RED binding assay to WWP2-N. The following applies: compound at 250 μM, binding measured over 120 seconds, Octet RED96e. The method, then: (§1) The WWP2 isoforms WWP2-FL, WWP2-N and WWP2-C were expressed as a GST fusion protein in bacteria and purified using glutathione sepharose 4B resin (GE Healthcare) according to the manufacturer's instructions. Expression and purity of the expressed WWP2 proteins was analysed by Coomassie Blue staining of the gel after separation by SDS-PAGE and western blotting (WB).
(§2) Binding assays were performed using the Octet RED96e System (FortéBio Inc., Menlo Park, Calif.). WWP2-FL, WWP2-N and WWP2-C proteins were biotinylated using NHS-PEO4-biotin (Pierce). Super-streptavidin (SSA) biosensors (FortéBio Inc., Menlo Park, Calif.) were coated in a solution containing 1 μM of biotinylated protein for 4 hours at 25° C. A duplicate set of sensors were incubated in assay buffer (1× kinetics buffer of ForteBio Inc.) with 5% DMSO without protein, for use as a background binding control. Both sets of sensors were blocked with a solution of 10 ug/ml Biocytin for 5 minutes at 25° C. A negative control of 5% DMSO was also used.
(§3) Binding of samples containing the different compounds (at a concentration of 250 μM) to coated and uncoated reference sensors was measured over 120 seconds. Analysis of the data was performed using a double reference subtraction (sample and sensor references) in the FortéBio data analysis software. […]

Another assay addresses T2, WWP2-C (Homo sapiens, UniProt O00308).
T2 construct: GST; made in house
Kind of assay: Octet RED binding assay to WWP2-C. The following applies: compound at 250 μM, binding measured over 120 seconds, Octet RED96e. Here is the method: as §1, §2, §3

In assay [1] the test system is primary renal fibroblasts. Kind of assay: Cellular fibrosis assay (ACTA2 immunostaining) in TGFβ1-stimulated primary renal fibroblasts. The class given is cell-based, mice. Conditions: compound 0.3 mM for 1 hour, then TGFβ1 stimulation 72 hours; fluorescence microscopy. Here is the method: Primary renal fibroblasts were obtained from the renal cortex of mice. Minced renal cortex pieces (1-3 mm^3) were placed in 6 cm dishes with DMEM supplemented with 20% fetal bovine serum for less than 10 days to generate mice renal fibroblasts (P0), and passaged to P1 and P2 in DMEM supplemented with 10% fetal bovine serum for experiments. To mimic the in vivo activation of renal fibroblasts in fibrosis, cells were treated with human transforming growth factor-β1 (TGFβ1) (Sigma Aldrich, #T7039) at a concentration of 5 ng/μl for 72 hours.
To test the anti-fibrotic effect of candidate small-molecules, cells were treated with each compound (0.3 mM) for 1 hour, followed by stimulation with TGFβ1 before harvesting. After fixation with ice-cold acetone and blocking with 1% BSA for 30 min at RT, the slides were incubated with primary anti-smooth muscle a actin (ACTA2) antibody (ACTA2 is a widely recognised myofibroblast marker, indicating fibroblast activation) (Sigma-Aldrich, #A5228, 1:100) overnight at 4° C. Following washing steps, slides were incubated with Bovine Anti-Mouse IgG-CFL 488 secondary antibody (Santacruz Biotechnology, #sc-362256, 1:100) for 2 hours at RT. VectaShield Mounting Medium (Vector laboratories, #H-1200) with DAPI was used to stain the nuclei and the slides were covered by coverslip. Slides were imaged on Leica fluorescence microscope (Leica).

The structures appear in SMILES notation.

T2 sequence (O00308 440-870 limits assumed): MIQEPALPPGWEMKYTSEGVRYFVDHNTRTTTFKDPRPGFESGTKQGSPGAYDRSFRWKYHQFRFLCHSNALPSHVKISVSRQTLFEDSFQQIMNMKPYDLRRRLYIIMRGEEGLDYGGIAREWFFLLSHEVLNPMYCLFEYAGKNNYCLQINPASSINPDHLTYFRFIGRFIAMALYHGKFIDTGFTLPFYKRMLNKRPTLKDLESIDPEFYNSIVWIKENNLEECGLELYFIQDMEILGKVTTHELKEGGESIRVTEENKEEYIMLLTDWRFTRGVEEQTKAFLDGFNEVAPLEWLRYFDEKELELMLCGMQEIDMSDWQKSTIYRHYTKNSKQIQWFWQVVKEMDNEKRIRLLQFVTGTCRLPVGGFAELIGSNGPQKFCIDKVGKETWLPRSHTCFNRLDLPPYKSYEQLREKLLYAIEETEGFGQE

On to `COc1ccc(-n2c(=O)c3c4c(sc3n(CC(=O)NCc3ccco3)c2=O)CCC4)c(OC)c1` [EP1, 2-[11-(2,4-dimethoxyphenyl)-10,12-dioxo-7-thia-9,11-diazatricyclo[6.4.0.02.6]dodeca-1(8),2(6)-dien-9-yl]-N-(furan-2-ylmethyl)acetamide], for which the “Binding level (nm) to WWP2 N isoform” value on WWP2-N amounted to 0.1253 nm. In addition, the “Binding level (nm) to WWP2 C isoform” value on WWP2-C turned out to be 0.0061 nm. Moreover, the “Anti-fibrotic response in renal fibroblasts (ACTA2 expression)” value in assay [1] is on record as “reduced expression of ACTA2”.
